Here are results for eleven molecules from patent US10000471B2, “Pyrazole P38 map kinase inhibitors” (Respivert Limited, priority 2010, dated 2018).

Data set [1] addresses T1, p38 MAPKα isoform (MAPK14) (Homo sapiens, UniProt Q16539).
T1 construct: purchased Invitrogen
The experiment in a line: Enzyme inhibition assay (FRET, Z-LYTE), p38 MAPKα via MAPKAP-K2 activation. Format: biochemical. The settings on record: read-out: Enzyme Inhibition IC50 p38α. Summed up:
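Z-LYTE FRET format, in which protease cleaves only non-phosphorylated peptide, read after 1 h development. Compound was mixed with p38 MAPKα for 2 h at RT, and inhibition was gauged from MAPKAP-K2 activation/phosphorylation rather than directly. Percent inhibition against an uninhibited control was fitted to give IC50.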

The target in another data set is T2, p38 MAPKγ (MAPK12) (Homo sapiens, UniProt P53778).
T2 construct: purchased Invitrogen
T2 sequence (P53778 1-367): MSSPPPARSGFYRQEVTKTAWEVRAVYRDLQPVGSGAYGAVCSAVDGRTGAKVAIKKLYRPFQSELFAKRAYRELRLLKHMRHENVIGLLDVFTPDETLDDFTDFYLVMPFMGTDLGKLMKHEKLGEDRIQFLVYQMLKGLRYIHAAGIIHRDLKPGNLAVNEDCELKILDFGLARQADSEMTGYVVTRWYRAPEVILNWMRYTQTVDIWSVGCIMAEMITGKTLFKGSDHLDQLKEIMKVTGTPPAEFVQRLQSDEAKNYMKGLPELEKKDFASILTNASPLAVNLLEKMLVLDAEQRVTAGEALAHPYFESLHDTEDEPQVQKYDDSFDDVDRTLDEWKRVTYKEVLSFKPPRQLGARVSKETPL
The experiment in a line: Enzyme inhibition assay (FRET, Z-LYTE), p38 MAPKγ. Format: biochemical. The conditions noted are these: read-out: Enzyme Inhibition IC50 p38γ. Summed up: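 Z-LYTE FRET readout: after 1 h kinase reaction (ATP 100 μM, peptide 2 μM) following 2 h RT enzyme–compound preincubation in HEPES, protease cleaves only unphosphorylated peptide. Percent inhibition from donor/acceptor ratio relative to control; IC50 fitted from the curve.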

The subject of data set [2] is TNFα release in THP-1 cells. The experiment in a line: LPS-induced TNFα release in THP-1 cells. Format: cell-based, human. The settings on record: Homo sapiens. Summed up:
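IC50 derived from concentration-response of TNFα inhibition relative to vehicle, with TNFα quantified by sandwich ELISA in supernatants. THP-1 cells were challenged 4 hr with LPS (E. coli, 3 μg/mL).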

For data set [3], the system named is TNFα release in d-U937 cells. The experiment in a line: LPS-induced TNFα release in d-U937 cells. It counts as cell-based, human. The settings on record: Homo sapiens, dU937, relative to 10 μg/mL BIRB796, read-out: LPS/TNFα REC50 d-U937. Summed up:
(§1)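 Sandwich ELISA of TNFα and IL-8 in supernatants after 4 hr 0.1 μg/mL LPS (E. coli O111:B4) challenge of U937 cells differentiated with PMA 100 ng/ml for 48–72 hr, compound added 2 hr beforehand. IL-8: IC50 from inhibition versus vehicle; TNFα: REC50 from inhibition as percentage of 10 μg/mL BIRB796 effect.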

For data set [4], the system named is IL-8 release in d-U937 cells. Description: LPS-induced IL-8 release in d-U937 cells. The settings on record: Homo sapiens, dU937. Format: cell-based, human. Summed up:
as §1

Data set [5] relates to ICAM-1 induction in BEAS2B cells. The experiment in a line: Poly I:C-induced ICAM-1 induction in BEAS2B cells. It counts as cell-based, human. The settings on record: Homo sapiens, BEAS-2B, read-out: PolyIC/ICAM1 IC50 BEAS2B. Summed up: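 IC50 reflects inhibition of cell-surface ICAM-1 relative to vehicle, read by ELISA (OD450 against 655 nm) and divided by crystal violet OD595 for cell number. Readings were taken 18 hr after transfection of 1 μg/mL poly I:C into BEAS2B cells. Compound was added 2 hr before stimulation.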

The subject of data set [6] is Differentiated U937 cells. The experiment in a line: Cell viability MTT assay. It counts as cell-based, human. The settings on record: negative = apparent increase in viability; for MTT Assay (Viability) 4 h d-U937, percentage loss of cell viability: 4 hr in 5% FCS; for MTT Assay (Viability) 24 h d-U937, percentage loss of cell viability: 24 h in 10% FCS. Summed up:
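Differentiated U937 cells pre-incubated with compound either 4 hr in 5% FCS or 24 h in 10% FCS, then 1 hr MTT. Formazan dissolved in DMSO, absorbance at 550 nm. Percentage viability loss relative to 0.5% DMSO vehicle; apparent increases appear as negative percentages.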
(Tetrazolium assays rely on reduction of a dye to a coloured formazan, in cell work by metabolically active cells.)

Structures are written as SMILES. pEC50, pIC50: −log10 of the molar value.

T1 sequence (Q16539 whole entry, canonical isoform): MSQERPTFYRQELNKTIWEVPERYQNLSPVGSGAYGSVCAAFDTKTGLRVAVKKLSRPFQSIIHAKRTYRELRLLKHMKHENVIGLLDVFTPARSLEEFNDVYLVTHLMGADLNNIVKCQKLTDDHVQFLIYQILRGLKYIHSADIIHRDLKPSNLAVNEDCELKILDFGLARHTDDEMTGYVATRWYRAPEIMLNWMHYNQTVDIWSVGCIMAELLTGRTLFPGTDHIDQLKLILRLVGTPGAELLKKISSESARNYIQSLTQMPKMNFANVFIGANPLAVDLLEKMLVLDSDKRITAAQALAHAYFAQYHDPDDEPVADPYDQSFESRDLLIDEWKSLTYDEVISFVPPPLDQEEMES

For `CC(C)(C)c1cc(NC(=O)Nc2ccc(Oc3ccnc(NC(=O)CN4CCOCC4)c3)c(Cl)c2Cl)n(-c2ccc(CO)cc2)n1` [Example 48, N-(4-(4-(3-(3-tert-butyl-1-(4-hydroxymethylphenyl)-1H-pyrazol-5-yl)ureido)-2,3-dichlorophenoxy)pyridin-2-yl)-2-morpholino-acetamide], the pIC50 in data set [1] was 8.20; on p38 MAPKγ (MAPK12), 7.65; in data set [2] it was 9.40; in data set [4], 8.29; in data set [5], 8.66. Besides, the pEC50 in data set [3] is 8.96. For the same molecule, the “MTT Assay (Viability) 4 h d-U937, percentage loss of cell viability” value in data set [6] amounted to 12.5%. Besides, the “MTT Assay (Viability) 24 h d-U937, percentage loss of cell viability” value in data set [6] is recorded as 84.1%.

In the case of `COCC(=O)Nc1cc(Oc2ccc(NC(=O)Nc3cc(C(C)(C)C)nn3-c3ccc(CO)cc3)c(Cl)c2Cl)ccn1` [Example 49, N-(4-(4-(3-(3-tert-butyl-1-(4-hydroxymethylphenyl)-1H-pyrazol-5-yl)ureido)-2,3-dichlorophenoxy)pyridin-2-yl)-2-methoxyacetamide], the pIC50 is 7.78 in data set [1]; 7.44 on p38 MAPKγ (MAPK12); 8.92 in data set [2]; 8.66 in data set [4]; 8.82 in data set [5]. For the same molecule, the pEC50 in data set [3] is 9.15. In addition, the “MTT Assay (Viability) 4 h d-U937, percentage loss of cell viability” value in data set [6] is given as −4.8%. For the same molecule, the “MTT Assay (Viability) 24 h d-U937, percentage loss of cell viability” value in data set [6] amounted to 92.2%.

Take `CNC(=O)Nc1cc(Oc2ccc(NC(=O)Nc3cc(C(C)(C)C)nn3-c3ccc(C)cc3)c(Cl)c2Cl)ccn1` [Example 50, 1-(3-tert-butyl-1-p-tolyl-1H-pyrazol-5-yl)-3-(2,3-dichloro-4-(2-(3-methylureido)pyridin-4-yloxy)phenyl)urea]: the pIC50 in data set [1] was 7.39; at p38 MAPKγ (MAPK12), 7.23; in data set [2], 8.89; in data set [4] it was 9.22; in data set [5], 8.96. For the same molecule, the pEC50 in data set [3] is 9.70. Moreover, the “MTT Assay (Viability) 4 h d-U937, percentage loss of cell viability” value in data set [6] is listed as −5.4%. Moreover, the “MTT Assay (Viability) 24 h d-U937, percentage loss of cell viability” value in data set [6] was 35.9%.

As for `CNC(=O)Nc1cc(Oc2ccc(NC(=O)Nc3cc(C(C)(C)C)nn3-c3ccc(O)cc3)c(Cl)c2Cl)ccn1` [Example 51, 1-(3-tert-butyl-1-(4-hydroxyphenyl)-1H-pyrazol-5-yl)-3-(2,3-dichloro-4-(2-(3-methylureido)pyridin-4-yloxy)phenyl)urea], the pIC50 is 7.47 in data set [1]; 6.76 at p38 MAPKγ (MAPK12); 9.15 in data set [2]; 8.17 in data set [4]; 9.15 in data set [5]. In data set [3], the pEC50 was 8.92. Also, in data set [6], the “MTT Assay (Viability) 4 h d-U937, percentage loss of cell viability” value is recorded as −17.3%. Moreover, the “MTT Assay (Viability) 24 h d-U937, percentage loss of cell viability” value in data set [6] was found to be 57.3%.

Consider `CNC(=O)Nc1cc(Oc2ccc(NC(=O)Nc3cc(C(C)(C)C)nn3-c3ccc(CO)cc3)c(Cl)c2Cl)ccn1` [Example 52, 1-(3-tert-butyl-1-(4-hydroxymethylphenyl)-1H-pyrazol-5-yl)-3-(2,3-dichloro-4-(2-(3-methylureido)pyridin-4-yloxy)phenyl)urea], for which the pIC50 was 7.77 in data set [1]; 7.49 at p38 MAPKγ (MAPK12); 9.00 in data set [2]; 8.72 in data set [4]; 8.62 in data set [5]. Besides, the pEC50 in data set [3] is 9.30. The “MTT Assay (Viability) 4 h d-U937, percentage loss of cell viability” value in data set [6] was −43.8%. Further, the “MTT Assay (Viability) 24 h d-U937, percentage loss of cell viability” value in data set [6] amounted to 8.1%.

As to `CNC(=O)Nc1cc(Oc2ccc(NC(=O)Nc3cc(C(C)(C)C)nn3-c3ccc(CO)c(OC)c3)c(Cl)c2Cl)ccn1` [Example 53, 1-(3-tert-butyl-1-(4-hydroxymethyl-3-methoxy-phenyl)-1H-pyrazol-5-yl)-3-(2,3-dichloro-4-(2-(3-methylureido)pyridin-4-yloxy)phenyl)urea], the pIC50 is 7.33 in data set [1]; 7.45 on p38 MAPKγ (MAPK12); 8.74 in data set [2]; 8.11 in data set [4]; 8.66 in data set [5]. Further, the pEC50 in data set [3] was 8.89. In addition, the “MTT Assay (Viability) 4 h d-U937, percentage loss of cell viability” value in data set [6] is reported as −1.1%. Also, in data set [6], the “MTT Assay (Viability) 24 h d-U937, percentage loss of cell viability” value came out at 87.8%.

`CNC(=O)Nc1cc(Oc2ccc(NC(=O)Nc3cc(C(C)(C)C)nn3-c3ccc(CO)c(Cl)c3)c(Cl)c2Cl)ccn1` [Example 54, 1-(3-tert-butyl-1-(3-chloro-4-hydroxymethylphenyl)-1H-pyrazol-5-yl)-3-(2,3-dichloro-4-(2-(3-methylureido)pyridin-4-yloxy)phenyl)urea]: the pIC50 in data set [1] was 7.06; at p38 MAPKγ (MAPK12), 7.28; in data set [2], 8.66; in data set [4], 8.49; in data set [5] it was 8.60. In data set [3], the pEC50 is 9.52. Besides, in data set [6], the “MTT Assay (Viability) 4 h d-U937, percentage loss of cell viability” value was −34.9%. Moreover, in data set [6], the “MTT Assay (Viability) 24 h d-U937, percentage loss of cell viability” value stood at 71.2%.

Regarding `CC(C)(C)c1cc(NC(=O)Nc2ccc(Oc3ccnc(NC(=O)NC4CC4)c3)c(Cl)c2Cl)n(-c2ccc(CO)cc2)n1` [Example 55, 1-(4-(4-(3-(3-tert-butyl-1-(4-hydroxymethylphenyl)-1H-pyrazol-5-yl)ureido)-2,3-dichlorophenoxy)pyridin-2-yl)-3-cyclopropylurea], the pIC50 in data set [1] is 7.30; at p38 MAPKγ (MAPK12), 6.70; in data set [2], 8.32; in data set [4], 8.51; in data set [5] it was 8.77. The pEC50 in data set [3] was 9.00. Besides, the “MTT Assay (Viability) 4 h d-U937, percentage loss of cell viability” value in data set [6] is −15.0%. Further, the “MTT Assay (Viability) 24 h d-U937, percentage loss of cell viability” value in data set [6] was 49.2%.

Take `CNC(=O)Nc1cc(Oc2ccc(NC(=O)Nc3cc(C(C)(C)C)nn3-c3ccc(C)cc3)c3ncccc23)ccn1` [Example 56, 1-(3-tert-butyl-1-p-tolyl-1H-pyrazol-5-yl)-3-(5-(2-(3-methylureido)pyridin-4-yloxy)quinolin-8-yl)urea]: the pIC50 in data set [1] was 7.28; at p38 MAPKγ (MAPK12), 6.71; in data set [2] it was 8.07; in data set [4], 8.34; in data set [5], 7.91. Besides, the pEC50 in data set [3] is 9.05. The “MTT Assay (Viability) 4 h d-U937, percentage loss of cell viability” value in data set [6] is listed as −25.5%. In addition, in data set [6], the “MTT Assay (Viability) 24 h d-U937, percentage loss of cell viability” value is −28.0%.

For `CNC(=O)Nc1cc(Oc2ccc(NC(=O)Nc3cc(C(C)(C)C)nn3-c3ccc(OC)cc3)c3ncccc23)ccn1` [Example 57, 1-(3-tert-butyl-1-(4-methoxyphenyl)-1H-pyrazol-5-yl)-3-(5-(2-(3-methylureido)pyridin-4-yloxy)quinolin-8-yl)urea], the pIC50 in data set [1] is 7.33; on p38 MAPKγ (MAPK12), 6.78; in data set [2], 7.83; in data set [4], 8.52; in data set [5] it was 6.85. The pEC50 in data set [3] is 8.64. Also, the “MTT Assay (Viability) 4 h d-U937, percentage loss of cell viability” value in data set [6] was −23.6%. Also, the “MTT Assay (Viability) 24 h d-U937, percentage loss of cell viability” value in data set [6] is recorded as −56.2%.

On to `CNC(=O)Nc1cc(Oc2ccc(NC(=O)Nc3cc(C(C)(C)C)nn3-c3ccc(OC)cc3)c3cccnc23)ccn1` [Example 58, 1-(3-tert-butyl-1-(4-methoxyphenyl)-1H-pyrazol-5-yl)-3-(8-(2-(3-methylureido)pyridin-4-yloxy)quinolin-5-yl)urea], for which the pIC50 in data set [1] was 7.47; on p38 MAPKγ (MAPK12), 6.76; in data set [2], 8.66; in data set [4], 8.48; in data set [5] it was 7.88. For the same molecule, the pEC50 in data set [3] was 8.68. Further, the “MTT Assay (Viability) 4 h d-U937, percentage loss of cell viability” value in data set [6] is listed as −12.4%. Further, in data set [6], the “MTT Assay (Viability) 24 h d-U937, percentage loss of cell viability” value was −29.0%.
